Tests used:
[1] = test system: Wnt activity (Sp5-Luc reporter, Wnt-responsive promoter) in SW480 colon carcinoma cells; experiment: Wnt activity screening assay: Sp5-Luc reporter gene assay in SW480 cells; type: cell-based; conditions: Homo sapiens; for inhibition at 10 µM: read-out: percent inhibition at 10 μM (given for EC50 of >10 μM); for EC50: overnight incubation, 10-point curve starting from 10 μM
In short: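 Luminescence (BrightGlo) was normalised to DMSO-only wells and fitted with a four-parameter variable-slope model for EC50; beyond 10 μM, % inhibition at 10 μM is given. Stable Sp5-Luc SW480 reporter cells, 4,000/well in 1% FBS, were exposed overnight at 37 °C to compounds, top 10 μM, 1:3 dilutions, 0.1% DMSO.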

IL-6 (THP-1 cells) = experiment: IL-6 inhibition in LPS-stimulated THP-1 monocytes (HTRF); type: cell-based; conditions: Homo sapiens, IL-6 HTRF; for EC50: 500 ng/mL LPS, Table 6; for inhibition at 10 µM: LPS, Table 6, read-out: percent inhibition at 10 μM (given in parentheses for EC50 >10 μM)
In short: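 THP-1 cells in 1% FBS pre-incubated 2 h with compound (10-point 1:3 series from 10 μM, 0.1% DMSO), then stimulated with 500 ng/mL LPS for 22 h at 37 °C. IL-6 measured by HTRF 665/620 ratio, normalized to DMSO; EC50 by four-parameter fit, or % inhibition at 10 μM when EC50 >10 μM.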

SMILES	EC50 [1] [µM]	EC50 (IL-6 (THP-1 cells)) [µM]	inhibition at 10 µM [1] [%]	inhibition at 10 µM (IL-6 (THP-1 cells)) [%]
CCCCC(=O)Nc1cncc(-c2ccc3[nH]nc(-c4nc5c(-c6ccccn6)cccc5[nH]4)c3n2)c1 [Compound 159, N-(5-(3-(4-(Pyridin-2-yl)-1H-benzo[d]imidazol-2-yl)-1H-pyrazolo[4,3-b]pyridin-5-yl)pyridin-3-yl)pentanamide]	> 10	> 10	11.3	26.6
c1cncc(-c2ccc3[nH]nc(-c4nc5c(-c6cccnc6)cccc5[nH]4)c3n2)c1 [Compound 88, 5-(Pyridin-3-yl)-3-(4-(pyridin-3-yl)-1H-benzo[d]imidazol-2-yl)-1H-pyrazolo [4,3-b]pyridine]	2.62	> 10		31.8
Cc1cn(-c2cccc3[nH]c(-c4n[nH]c5ccc(C6=CCNCC6)nc45)nc23)cn1 [Compound 618, 3-(4-(4-Methyl-1H-imidazol-1-yl)-1H-benzo[d]imidazol-2-yl)-5-(1,2,3,6-tetrahydropyridin-4-yl)-1H-pyrazolo[4,3-b]pyridine]	> 10	> 10	1.2	42
Fc1ccc(-c2cccc3[nH]c(-c4n[nH]c5ccc(-c6cncc(CN7CCCC7)c6)nc45)nc23)cc1 [Compound 42, 3-(4-(4-Fluorophenyl)-1H-benzo[d]imidazol-2-yl)-5-(5-(pyrrolidin-1-ylmethyl)pyridin-3-yl)-1H-pyrazolo[4,3-b]pyridine]	1.08	0.389		
CC(C)C(=O)Nc1cncc(-c2ccc3[nH]nc(-c4nc5c(-c6ccccc6F)cccc5[nH]4)c3n2)c1 [Compound 65, N-(5-(3-(4-(2-fluorophenyl)-1H-benzo[d]imidazol-2-yl)-1H-pyrazolo[4,3-b]pyridin-5-yl)pyridin-3-yl)isobutyramide]	5.1	> 10		30.7
O=C(CC1CCNCC1)Nc1cncc(-c2ccc3[nH]nc(-c4nc5c(-c6ccccn6)cccc5[nH]4)c3n2)c1 [Compound 593, 2-(Piperidin-4-yl)-N-(5-(3-(4-(pyridin-2-yl)-1H-benzo[d]imidazol-2-yl)-1H-pyrazolo[4,3-b]pyridin-5-yl)pyridin-3-yl)acetamide]	> 10	0.929	26.6	
c1ccc(CNCc2cncc(-c3ccc4[nH]nc(-c5nc6c(-c7cccnc7)cccc6[nH]5)c4n3)c2)cc1 [Compound 108, N-Benzyl-1-(5-(3-(4-(pyridin-3-yl)-1H-benzo[d]imidazol-2-yl)-1H-pyrazolo [4,3-b]pyridin-5-yl)pyridin-3-yl)methanamine]	2.3	2.12		
CC(C)C(=O)Nc1cncc(-c2ccc3[nH]nc(-c4nc5c(N6CCN(C)CC6)cccc5[nH]4)c3n2)c1 [Compound 233, N-(5-(3-(4-(4-Methylpiperazin-1-yl)-1H-benzo[d]imidazol-2-yl)-1H-pyrazolo[4,3-b]pyridin-5-yl)pyridin-3-yl)isobutyramide]	> 10	> 10	7.3	42.9
O=C(Nc1cncc(-c2ccc3[nH]nc(-c4nc5c(-c6ccc(F)cc6)cccc5[nH]4)c3n2)c1)C1CCC1 [Compound 49, N-(5-(3-(4-(4-Fluorophenyl)-1H-benzo[d]imidazol-2-yl)-1H-pyrazolo[4,3-b]pyridin-5-yl)pyridin-3-yl)cyclobutanecarboxamide]	> 10	> 10	28.3	43.6
O=C(Nc1cncc(-c2ccc3[nH]nc(-c4nc5c(-c6ccsc6)cccc5[nH]4)c3n2)c1)c1ccccc1 [Compound 291, N-(5-(3-(4-(Thiophen-3-yl)-1H-benzo[d]imidazol-2-yl)-1H-pyrazolo[4,3-b]pyridin-5-yl)pyridin-3-yl)benzamide]	> 10	> 10	42.5	28.9
c1cc(-c2ccncc2)c2nc(-c3n[nH]c4ccc(-c5ccncc5)nc34)[nH]c2c1 [Compound 130, 5-(Pyridin-4-yl)-3-(4-(pyridin-4-yl)-1H-benzo[d]imidazol-2-yl)-1H-pyrazolo [4,3-b]pyridine]	> 10	> 10	39.7	48.7
c1cc(-c2ccncc2)c2nc(-c3n[nH]c4ccc(-c5cncc(OC6CCNCC6)c5)nc34)[nH]c2c1 [Compound 576, 5-(5-(Piperidin-4-yloxy)pyridin-3-yl)-3-(4-(pyridin-4-yl)-1H-benzo[d]imidazol-2-yl)-1H-pyrazolo[4,3-b]pyridine]	> 10	> 10	25.7	37
CN(C)Cc1cncc(-c2ccc3[nH]nc(-c4nc5c(N6CCCCC6)cccc5[nH]4)c3n2)c1 [Compound 181, N,N-dimethyl-1-(5-(3-(4-(piperidin-1-yl)-1H-benzo[d]imidazol-2-yl)-1H-pyrazolo[4,3-b]pyridin-5-yl)pyridin-3-yl)methanamine]	1.89	4.94		
CC(C)(C)CC(=O)Nc1cncc(-c2ccc3[nH]nc(-c4nc5c(-c6ccccc6F)cccc5[nH]4)c3n2)c1 [Compound 72, N-(5-(3-(4-(2-Fluorophenyl)-1H-benzo[d]imidazol-2-yl)-1H-pyrazolo[4,3-b]pyridin-5-yl)pyridin-3-yl)-3,3-dimethylbutanamide]	> 10	> 10	11.6	14.1

The next lines start with results.

EC50 [1] [µM]	EC50 (IL-6 (THP-1 cells)) [µM]	SMILES	inhibition at 10 µM [1] [%]	inhibition at 10 µM (IL-6 (THP-1 cells)) [%]
1.12	3.32	CN(C)CCNc1cc(F)cc(-c2cccc3[nH]c(-c4n[nH]c5ccc(-c6cncc(OCc7ccccc7)c6)nc45)nc23)c1 [Compound 790, N^1-(3-(2-(5-(5-(Benzyloxy)pyridin-3-yl)-1H-pyrazolo[4,3-b]pyridin-3-yl)-1H-benzo[d]imidazol-4-yl)-5-fluorophenyl)-N^2,N^2-dimethylethane-1,2-diamine]		
> 10	> 10	COc1cccc(-c2cccc3[nH]c(-c4n[nH]c5ccc(-c6cn[nH]c6)nc45)nc23)c1 [Compound 1020, 3-(4-(3-Methoxyphenyl)-1H-benzo[d]imidazol-2-yl)-5-(1H-pyrazol-4-yl)-1H-pyrazolo[4,3-b]pyridine]	18.9	23.7
1.25	> 10	Clc1ccc(-c2cccc3[nH]c(-c4n[nH]c5ccc(-c6cncc(CN7CCCC7)c6)nc45)nc23)s1 [Compound 1049, 3-(4-(5-Chlorothiophen-2-yl)-1H-benzo[d]imidazol-2-yl)-5-(5-(pyrrolidin-1-ylmethyl)pyridin-3-yl)-1H-pyrazolo[4,3-b]pyridine]		48.3
> 10	1	Cc1cn(-c2cccc3[nH]c(-c4n[nH]c5ccc(-c6cncc(OCCN(C)C)c6)nc45)nc23)cn1 [Compound 627, N,N-Dimethyl-2-((5-(3-(4-(4-methyl-1H-imidazol-1-yl)-1H-benzo[d]imidazol-2-yl)-1H-pyrazolo[4,3-b]pyridin-5-yl)pyridin-3-yl)oxy)ethan-1-amine]	38.1	
3.96	0.686	CN(C)CCNc1cc(F)cc(-c2cccc3[nH]c(-c4n[nH]c5ccc(-c6cnccn6)nc45)nc23)c1 [Compound 792, N^1-(3-Fluoro-5-(2-(5-(pyrazin-2-yl)-1H-pyrazolo[4,3-b]pyridin-3-yl)-1H-benzo[d]imidazol-4-yl)phenyl)-N^2,N^2-dimethylethane-1,2-diamine]		
> 10	> 10	COc1cccc(-c2cccc3[nH]c(-c4n[nH]c5ccc(-c6cncc(NC(=O)C7CCCCC7)c6)nc45)nc23)c1 [Compound 1012, N-(5-(3-(4-(3-Methoxyphenyl)-1H-benzo[d]imidazol-2-yl)-1H-pyrazolo[4,3-b]pyridin-5-yl)pyridin-3-yl)cyclohexanecarboxamide]	3.6	33
3.99	7.09	CN1CCN(c2cccc3[nH]c(-c4n[nH]c5ccc(-c6cncc(NC(=O)C(F)(F)F)c6)nc45)nc23)CC1 [Compound 1127, 2,2,2-Trifluoro-N-(5-(3-(4-(4-methylpiperazin-1-yl)-1H-benzo[d]imidazol-2-yl)-1H-pyrazolo[4,3-b]pyridin-5-yl)pyridin-3-yl)acetamide]		
> 10	> 10	c1ccc2[nH]c(-c3n[nH]c4ccc(-c5cn[nH]c5)nc34)nc2c1 [Compound 651, 3-(1H-Benzo[d]imidazol-2-yl)-5-(1H-pyrazol-4-yl)-1H-pyrazolo[4,3-b]pyridine]	40.2	0
1.31	> 10	CC(C)(C)C(=O)Nc1cncc(-c2ccc3[nH]nc(-c4nc5c(-c6ccc(Cl)s6)cccc5[nH]4)c3n2)c1 [Compound 1043, N-(5-(3-(4-(5-chlorothiophen-2-yl)-1H-benzo[d]imidazol-2-yl)-1H-pyrazolo[4,3-b]pyridin-5-yl)pyridin-3-yl)pivalamide]		16.9
3.52	> 10	c1cc(-c2ccc3c(c2)OCO3)c2nc(-c3n[nH]c4ccc(C5CCNCC5)nc34)[nH]c2c1 [Compound 1108, 3-(4-(Benzo[d][1,3]dioxol-5-yl)-1H-benzo[d]imidazol-2-yl)-5-(piperidin-4-yl)-1H-pyrazolo[4,3-b]pyridine]		4.6

— patent US10392383B2, “3-(1H-benzo[d]imidazol-2-yl)-1H-pyrazolo[4,3-b]pyridines and therapeutic uses thereof” (Samumed, LLC, priority 2015, dated 2019)
